Measured values from patent publication US10927085B2, “1,2-naphthoquinone based derivative and method of preparing the same” (HUEN Co., Ltd., priority 2013, dated 2021).
Read-outs that look alike come from different tables or passages of the source.

Legend:
C57BL/6J Lep ob/ob mice = experiment: Weight loss effects in obese mice (ob/ob); assay type: in vivo; details: for weight increase ratio vs controls (FIG. 1): Exp. Ex. 3-1: 6.5 week-old ob/ob mice, 100 mg/kg orally once every day for two weeks
Method: 6.5 week-old C57BL/6J Lep ob/ob mice having genetic obesity characteristics available from ORIENTBIO were prepared. Two mice were raised in each polycarbonate breeding cage (200 W×260 L×130H (mm), Three-shine) in which temperature was 22 to 24° C., relative humidity was 30 to 50%, illuminance was 150 to 300 lux, night and day were 12 hours, and exhaust was performed at 10 to 15 air changes per hour. As a feed, low fat diet (11.9 kcal % fat, 5053, Labdiet) manufactured by ORIENTBIO was used. The feed was contained in a feeder and free intake was allowed. As drinking water, water, which was contained in a 250 mL polycarbonate based bottle, purified through a filter and a sterilizer was used and free intake was allowed.
For administration, a disposable syringe fitted with a sonde for oral administration was used and 10 ml/kg of the compound was orally administered into the stomach. As controls, three C57BL/6J Lep ob/ob mice were administered 0.1% SLS in an amount of 100 mg/kg in the same manner as described above. After administration, a time-dependent weight increase ratio was measured and results are illustrated in FIG. 1 below.
Weights of the experimental animals were measured immediately before administration of a test material and six times a week from an administration initiation day to a test termination day. Increased total weights were calculated by subtracting weights measured on an experiment initiation day from weights measured one day before an experiment termination day. Food intake amounts were calculated by measuring feed supply amounts and remaining amounts twice a week from an initiation day of test material administration to a test termination day for each individual.
Weight increase ratios, weight change, and intake amounts depending on administration time were measured and results are illustrated in FIG. 2 below.
Weight increase ratios, weight change, and intake amounts depending on administration time were measured and results are illustrated in FIG. 3 below.
Weight increase ratios, weight change, and intake amounts depending on administration time were measured and results are illustrated in FIG. 4 below.
Weight increase ratios, weight change, and intake amounts depending on administration time were measured and results are illustrated in FIG. 5 below.
Weight increase ratios, weight change, and intake amounts depending on administration time were measured and results are illustrated in FIG. 6 below.
Weight increase ratios, weight change, and intake amounts depending on administration time were measured and results are illustrated in FIG. 7 below.
Weight increase ratios, weight change, and intake amounts depending on administration time were measured and results are illustrated in FIG. 8 below.

cells = experiment: Measurement of lactate change amount within cells; assay type: cell-based
Method: Cells were treated with 400 μl of 6% PCA, and then collected and extracted. Centrifugation (13,000 rpm, 10 min) was performed. A precipitate was dried using a Speed-Vac and then a weight of dried precipitate was measured. A supernatant was neutralized using 400 μl of 1 M KOH and a final volume thereof was adjusted to 1 ml using 0.33 M KH2PO4/K2HPO4, pH 7.5. Centrifugation (13,000 rpm, 10 min) was performed and the amount of lactate in a supernatant was measured (Megazyme, K-LATE).

NQO1 protein = NQO1 protein (Homo sapiens, UniProt P15559); experiment: NQO1 activity measurement (cytochrome C reduction); assay type: biochemical
NQO1 protein, sequence (P15559 whole entry, species assumed): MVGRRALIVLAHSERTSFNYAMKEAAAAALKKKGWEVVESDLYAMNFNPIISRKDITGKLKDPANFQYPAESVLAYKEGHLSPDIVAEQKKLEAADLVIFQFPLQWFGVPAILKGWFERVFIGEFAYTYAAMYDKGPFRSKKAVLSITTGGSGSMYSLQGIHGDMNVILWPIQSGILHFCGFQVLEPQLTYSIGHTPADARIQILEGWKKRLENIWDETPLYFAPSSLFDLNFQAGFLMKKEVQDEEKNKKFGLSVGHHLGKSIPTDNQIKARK
Method: An enzyme reaction solution included 25 mM Tris/HCl (pH 7.4), 0.14% bovine serum albumin, 200 μM NADH, 77 μM cytochrome C, and 5 ng of NQO1 protein. Enzymatic reaction was initiated by adding NADH and performed at 37° C. In this regard, a reaction rate was measured by observing absorbance, which was increased due to reduction of cytochrome C, at 550 nm for 10 minutes and NQO1 activity was represented as an amount of reduced cytochrome C [nmol cytochrome C reduced/min/μg protein].
Extinction coefficient for cytochrome C:21.1 mmol/L/cm=21.1 μmol/ml/cm

[1] = 5 μM, 37° C., absorbance at 550 nm for 10 minutes, 200 μM NADH, 77 μM cytochrome C, 5 ng NQO1 protein
[2] = Exp. Ex. 3-2: 10.5 week-old ob/ob mice, 150 mg/kg orally, six days
[3] = Exp. Ex. 3-6: 12 week-old ob/ob mice, 150 mg/kg orally, seven days
[4] = Exp. Ex. 3-8: 9.5 week-old ob/ob mice, 150 mg/kg orally, otherwise as 3-1
[5] = Exp. Ex. 3-7: 6.5 week-old ob/ob mice, 150 mg/kg orally, seven days
[6] = Exp. Ex. 3-4: 11 week-old ob/ob mice, 100 mg/kg orally, six days
[7] = Exp. Ex. 3-3: 6 week-old ob/ob mice, 100 mg/kg orally, otherwise as 3-1

O=C1C(=O)c2oc(-c3ccccc3)nc2-c2ccccc21 [Example 27]
weight change vs controls (FIG. 4) (C57BL/6J Lep ob/ob mice; mouse, in vivo, po, 100 mg/kg): significantly decreased | Lactate change amount within cells (nmol/mg cell) (cells): 5.8 nmol/mg cell

O=C1C(=O)c2nc(CN3CCOCC3)oc2-c2ccccc21 [Example 4, 2-(morpholinomethyl)naphtho[2,1-d]oxazole-4,5-dione]
NQO1 activity (5 μM, [nmol cytochrome C reduced/min/μg protein]) (NQO1 protein; [1]): 207.3 nmol cytochrome C reduced/min/μg protein | intake amount vs controls (FIG. 2) (C57BL/6J Lep ob/ob mice; [2]): significantly decreased | weight change vs controls (FIG. 2) (C57BL/6J Lep ob/ob mice; [2]): significantly decreased | weight increase ratio vs controls (FIG. 2) (C57BL/6J Lep ob/ob mice; [2]): significantly decreased | Lactate change amount within cells (nmol/mg cell) (cells): 9.3 nmol/mg cell

CC(C)(C)c1nc2c(o1)-c1ccccc1C(=O)C2=O [Example 2, 2-tert-butylnaphtho[2,1-d]oxazole-4,5-dione]
NQO1 activity (5 μM, [nmol cytochrome C reduced/min/μg protein]) (NQO1 protein; [1]): 243.2 nmol cytochrome C reduced/min/μg protein | weight increase ratio vs controls (FIG. 1) (C57BL/6J Lep ob/ob mice): significantly decreased | Lactate change amount within cells (nmol/mg cell) (cells): 6.8 nmol/mg cell

CC(C)c1nc2c(o1)-c1ccccc1C(=O)C2=O [Example 1, 2-isopropylnaphtho[2,1-d]oxazole-4,5-dione]
NQO1 activity (5 μM, [nmol cytochrome C reduced/min/μg protein]) (NQO1 protein; [1]): 255.2 nmol cytochrome C reduced/min/μg protein | weight increase ratio vs controls (FIG. 1) (C57BL/6J Lep ob/ob mice): significantly decreased | Lactate change amount within cells (nmol/mg cell) (cells): 5.2 nmol/mg cell

CN(C)Cc1nc2c(o1)-c1ccccc1C(=O)C2=O [Example 5, 2-((dimethylamino)methyl)naphtho[2,1-d]oxazole-4,5-dione]
intake amount vs controls (FIG. 2) (C57BL/6J Lep ob/ob mice; mouse, in vivo, po, 150 mg/kg): significantly decreased | weight change vs controls (FIG. 2) (C57BL/6J Lep ob/ob mice; mouse, in vivo, po, 150 mg/kg): significantly decreased | Lactate change amount within cells (nmol/mg cell) (cells): 5.9 nmol/mg cell

CCn1c2c(oc1=O)-c1ccccc1C(=O)C2=O [Example 41]
NQO1 activity (5 μM, [nmol cytochrome C reduced/min/μg protein]) (NQO1 protein): 237.1 nmol cytochrome C reduced/min/μg protein | intake amount vs controls (FIG. 7) (C57BL/6J Lep ob/ob mice; mouse, in vivo, po, 150 mg/kg): significantly decreased in some sections | weight change vs controls (FIG. 7) (C57BL/6J Lep ob/ob mice; mouse, in vivo, po, 150 mg/kg): significantly decreased in some sections | weight increase ratio vs controls (FIG. 7) (C57BL/6J Lep ob/ob mice; mouse, in vivo, po, 150 mg/kg): significantly decreased in some sections | Lactate change amount within cells (nmol/mg cell) (cells): 5.2 nmol/mg cell

O=C1C(=O)c2oc(-c3ccc(F)cc3)nc2-c2cccnc21 [Example 36]
NQO1 activity (5 μM, [nmol cytochrome C reduced/min/μg protein]) (NQO1 protein; [1]): 936.1 nmol cytochrome C reduced/min/μg protein | intake amount vs controls (FIG. 6) (C57BL/6J Lep ob/ob mice; [3]): significantly decreased | weight change vs controls (FIG. 6) (C57BL/6J Lep ob/ob mice; [3]): significantly decreased | weight increase ratio vs controls (FIG. 6) (C57BL/6J Lep ob/ob mice; [3]): significantly decreased | Lactate change amount within cells (nmol/mg cell) (cells): 7.3 nmol/mg cell

O=C1C(=O)c2c(oc(=O)n2Cc2ccc(F)cc2)-c2ccccc21 [Example 42]
NQO1 activity (5 μM, [nmol cytochrome C reduced/min/μg protein]) (NQO1 protein; [1]): 208.0 nmol cytochrome C reduced/min/μg protein | intake amount vs controls (FIG. 8) (C57BL/6J Lep ob/ob mice; [4]): significantly decreased in some sections | weight change vs controls (FIG. 8) (C57BL/6J Lep ob/ob mice; [4]): significantly decreased in some sections | weight increase ratio vs controls (FIG. 8) (C57BL/6J Lep ob/ob mice; [4]): significantly decreased in some sections | Lactate change amount within cells (nmol/mg cell) (cells): 7.1 nmol/mg cell

CCc1nc2c(o1)C(=O)C(=O)c1ccccc1-2 [Example 51]
NQO1 activity (5 μM, [nmol cytochrome C reduced/min/μg protein]) (NQO1 protein; [1]): 240.9 nmol cytochrome C reduced/min/μg protein | intake amount vs controls (FIG. 7) (C57BL/6J Lep ob/ob mice; [5]): significantly decreased in some sections | weight change vs controls (FIG. 7) (C57BL/6J Lep ob/ob mice; [5]): significantly decreased in some sections | weight increase ratio vs controls (FIG. 7) (C57BL/6J Lep ob/ob mice; [5]): significantly decreased in some sections | Lactate change amount within cells (nmol/mg cell) (cells): 5.7 nmol/mg cell

CC(C)(C)c1nc2c(o1)C(=O)C(=O)c1ccccc1-2 [Example 28, 2-tert-butylnaphtho[1,2-d]oxazole-4,5-dione]
intake amount vs controls (FIG. 3) (C57BL/6J Lep ob/ob mice; mouse, in vivo, po, 100 mg/kg): significantly decreased | Lactate change amount within cells (nmol/mg cell) (cells): 7.4 nmol/mg cell

COc1ccc(Br)c2c1-c1oc(C(C)C)nc1C(=O)C2=O [Example 9, 6-bromo-2-isopropyl-9-methoxynaphtho[2,1-d]oxazole-4,5-dione]
NQO1 activity (5 μM, [nmol cytochrome C reduced/min/μg protein]) (NQO1 protein; [1]): 73.6 nmol cytochrome C reduced/min/μg protein | weight change vs controls (FIG. 4) (C57BL/6J Lep ob/ob mice; [6]): significantly decreased | weight increase ratio vs controls (FIG. 4) (C57BL/6J Lep ob/ob mice; [6]): significantly decreased | Lactate change amount within cells (nmol/mg cell) (cells): 7.3 nmol/mg cell

CC(C)(C)c1nc2c(o1)C(=O)C(=O)c1cc(N)ccc1-2 [Example 30, 7-amino-2-tert-butylnaphtho[1,2-d]oxazole-4,5-dione]
intake amount vs controls (FIG. 5) (C57BL/6J Lep ob/ob mice; mouse, in vivo, po, 150 mg/kg): significantly decreased | weight change vs controls (FIG. 5) (C57BL/6J Lep ob/ob mice; mouse, in vivo, po, 150 mg/kg): significantly decreased | Lactate change amount within cells (nmol/mg cell) (cells): 7.3 nmol/mg cell

COc1cccc2c1-c1oc(C(C)C)nc1C(=O)C2=O [Example 8, 2-isopropyl-9-methoxynaphtho[2,1-d]oxazole-4,5-dione]
NQO1 activity (5 μM, [nmol cytochrome C reduced/min/μg protein]) (NQO1 protein; [1]): 205.1 nmol cytochrome C reduced/min/μg protein | intake amount vs controls (FIG. 3) (C57BL/6J Lep ob/ob mice; [7]): significantly decreased | weight increase ratio vs controls (FIG. 3) (C57BL/6J Lep ob/ob mice; [7]): significantly decreased | Lactate change amount within cells (nmol/mg cell) (cells): 6.2 nmol/mg cell

CC(C)c1nc2c(o1)-c1cccc(O)c1C(=O)C2=O [Example 15, 6-hydroxy-2-isopropylnaphtho[2,1-d]oxazole-4,5-dione]
NQO1 activity (5 μM, [nmol cytochrome C reduced/min/μg protein]) (NQO1 protein; [1]): 20.8 nmol cytochrome C reduced/min/μg protein | Lactate change amount within cells (nmol/mg cell) (cells): 4.1 nmol/mg cell
